± gives the expanded uncertainty stated by the source.
Assay: activity coefficient (dimensionless); of the first substance listed, at infinite dilution; xn = mol fraction of the nth substance listed
Settings: 101.33 kPa, Liquid, Chromatography, x1 = 0

Compound | activity coefficient (318.15 K) | activity coefficient (328.15 K) | activity coefficient (338.15 K) | activity coefficient (348.15 K) | activity coefficient (358.15 K) | activity coefficient (368.15 K) | activity coefficient (298.15 K) | activity coefficient (308.15 K)
Cc1ccccc1C [1,2-dimethylbenzene] + N#C[N-]C#N.OCCC[n+]1ccccc1 | 11.1 ± 0.8 | 11.5 ± 0.8 | 11.9 ± 0.8 | 12.3 ± 0.8 | 12.7 ± 0.9 | 13 ± 0.9 | – | –
Cc1cccc(C)c1 [1,3-dimethylbenzene] + N#C[N-]C#N.OCCC[n+]1ccccc1 | 14.4 ± 1 | 14.8 ± 1 | 15.3 ± 1 | 15.7 ± 1.1 | 16.1 ± 1.1 | 16.5 ± 1.1 | – | –
Cc1ccc(C)cc1 [1,4-dimethylbenzene] + N#C[N-]C#N.OCCC[n+]1ccccc1 | 13.8 ± 0.9 | 14.3 ± 1 | 14.8 ± 1 | 15.3 ± 1 | 15.7 ± 1.1 | 16.2 ± 1.1 | – | –
C1COCCO1 [1,4-dioxane] + N#C[N-]C#N.OCCC[n+]1ccccc1 | 1.74 ± 0.12 | 1.86 ± 0.13 | 1.99 ± 0.14 | 2.12 ± 0.14 | 2.25 ± 0.15 | 2.38 ± 0.16 | – | –
C=CCCCCCCCC [1-decene] + N#C[N-]C#N.OCCC[n+]1ccccc1 | 887 ± 61 | 829 ± 57 | 777 ± 54 | 731 ± 50 | 691 ± 48 | – | 1030 ± 71 | 954 ± 66
C=CCCCCC [1-heptene] + N#C[N-]C#N.OCCC[n+]1ccccc1 | 200 ± 14 | 190 ± 13 | 182 ± 13 | 174 ± 12 | 167 ± 11 | – | 223 ± 15 | 211 ± 15
C#CCCCCC [1-heptyne] + N#C[N-]C#N.OCCC[n+]1ccccc1 | 37.4 ± 2.6 | 38.2 ± 2.6 | 39 ± 2.7 | 39.7 ± 2.7 | 40.4 ± 2.8 | – | 35.7 ± 2.4 | 36.5 ± 2.5
C#CCCCC [1-hexyne] + N#C[N-]C#N.OCCC[n+]1ccccc1 | 21.5 ± 1.5 | 22.5 ± 1.5 | 23.4 ± 1.6 | 24.3 ± 1.7 | 25.2 ± 1.7 | – | 19.8 ± 1.4 | 20.6 ± 1.4
CCC[N+](=O)[O-] [1-nitropropane] + N#C[N-]C#N.OCCC[n+]1ccccc1 | 2.96 ± 0.2 | 3.08 ± 0.21 | 3.18 ± 0.22 | 3.28 ± 0.22 | 3.37 ± 0.23 | 3.47 ± 0.24 | – | –
C#CCCCCCC [1-octyne] + N#C[N-]C#N.OCCC[n+]1ccccc1 | 69.4 ± 4.8 | 70.2 ± 4.8 | 71.1 ± 4.9 | 71.8 ± 4.9 | 72.6 ± 5 | – | 67.5 ± 4.6 | 68.5 ± 4.7
C=CCCC [1-pentene] + N#C[N-]C#N.OCCC[n+]1ccccc1 | 66.3 ± 4.5 | 63.1 ± 4.3 | – | – | – | – | 74.6 ± 5.1 | 70.2 ± 4.8
C#CCCC [1-pentyne] + N#C[N-]C#N.OCCC[n+]1ccccc1 | 12.1 ± 0.8 | 12.6 ± 0.9 | 13.1 ± 0.9 | 13.5 ± 0.9 | 14 ± 1 | – | 11.1 ± 0.8 | 11.6 ± 0.8
CC(C)CC(C)(C)C [2,2,4-trimethylpentane] + N#C[N-]C#N.OCCC[n+]1ccccc1 | 640 ± 44 | 579 ± 40 | – | – | – | – | 800 ± 55 | 714 ± 49
CCOC(C)(C)C [2-ethoxy-2-methylpropane] + N#C[N-]C#N.OCCC[n+]1ccccc1 | 85.6 ± 5.9 | 83.9 ± 5.8 | 82.4 ± 5.6 | 80.7 ± 5.5 | 79.1 ± 5.4 | 77.9 ± 5.3 | – | –
CCC(C)(C)OC [2-methoxy-2-methylbutane] + N#C[N-]C#N.OCCC[n+]1ccccc1 | 41.8 ± 2.9 | 42 ± 2.9 | 42.1 ± 2.9 | 42.3 ± 2.9 | 42.5 ± 2.9 | 42.6 ± 2.9 | – | –
COC(C)(C)C [2-methoxy-2-methylpropane] + N#C[N-]C#N.OCCC[n+]1ccccc1 | 25.1 ± 1.7 | 25.5 ± 1.7 | 25.9 ± 1.8 | 26.2 ± 1.8 | 26.6 ± 1.8 | 26.9 ± 1.8 | – | –
CC(C)CO [2-methyl-1-propanol] + N#C[N-]C#N.OCCC[n+]1ccccc1 | 3.31 ± 0.23 | 3.26 ± 0.22 | 3.2 ± 0.22 | 3.15 ± 0.21 | 3.11 ± 0.21 | 3.06 ± 0.21 | – | –
CC(C)(C)O [2-methylpropan-2-ol] + N#C[N-]C#N.OCCC[n+]1ccccc1 | 3.08 ± 0.21 | 3.08 ± 0.21 | 3.07 ± 0.21 | 3.07 ± 0.21 | 3.07 ± 0.21 | 3.05 ± 0.21 | – | –
CCC(C)CC [3-methylpentane] + N#C[N-]C#N.OCCC[n+]1ccccc1 | 286 ± 20 | 272 ± 19 | – | – | – | – | 321 ± 22 | 302 ± 21
C=C(C)c1ccccc1 [(1-methylethenyl)benzene] + N#C[N-]C#N.OCCC[n+]1ccccc1 | 11.3 ± 0.8 | 12 ± 0.8 | 12.7 ± 0.9 | 13.3 ± 0.9 | 14 ± 1 | 14.6 ± 1 | – | –
CC(C)=O [acetone] + N#C[N-]C#N.OCCC[n+]1ccccc1 | 1.87 ± 0.13 | 1.97 ± 0.13 | 2.05 ± 0.14 | 2.14 ± 0.15 | 2.23 ± 0.15 | 2.31 ± 0.16 | – | –
CC#N [acetonitrile] + N#C[N-]C#N.OCCC[n+]1ccccc1 | 1.24 ± 0.08 | 1.29 ± 0.08 | 1.34 ± 0.09 | 1.38 ± 0.09 | 1.43 ± 0.09 | 1.48 ± 0.1 | – | –
c1ccccc1 [benzene] + N#C[N-]C#N.OCCC[n+]1ccccc1 | 5.02 ± 0.34 | 5.18 ± 0.35 | 5.36 ± 0.37 | 5.53 ± 0.38 | 5.69 ± 0.39 | 5.85 ± 0.4 | – | –
CCCCO [butan-1-ol] + N#C[N-]C#N.OCCC[n+]1ccccc1 | 3.29 ± 0.22 | 3.23 ± 0.22 | 3.18 ± 0.22 | 3.13 ± 0.21 | 3.09 ± 0.21 | 3.05 ± 0.21 | – | –
CCC(C)O (configuration not stated) [butan-2-ol] + N#C[N-]C#N.OCCC[n+]1ccccc1 | 3.23 ± 0.22 | 3.18 ± 0.22 | 3.13 ± 0.21 | 3.09 ± 0.21 | 3.05 ± 0.21 | 3.02 ± 0.21 | – | –
CCCC=O [butanal] + N#C[N-]C#N.OCCC[n+]1ccccc1 | 4.09 ± 0.28 | 4.21 ± 0.29 | 4.3 ± 0.29 | 4.39 ± 0.3 | 4.49 ± 0.31 | 4.57 ± 0.31 | – | –
C1CCCCCC1 [cycloheptane] + N#C[N-]C#N.OCCC[n+]1ccccc1 | 139 ± 10 | 130 ± 9 | 122 ± 8 | 115 ± 8 | 109 ± 7 | – | 161 ± 11 | 149 ± 10
C1CCCCC1 [cyclohexane] + N#C[N-]C#N.OCCC[n+]1ccccc1 | 105 ± 7 | 99.8 ± 6.8 | 95 ± 6.5 | 90.7 ± 6.2 | 86.9 ± 6 | – | 118 ± 8 | 111 ± 8
C1=CCCCC1 [cyclohexene] + N#C[N-]C#N.OCCC[n+]1ccccc1 | 36.6 ± 2.5 | 35.8 ± 2.4 | 34.8 ± 2.4 | 34 ± 2.3 | 33.4 ± 2.3 | – | 38.7 ± 2.6 | 37.6 ± 2.6

Reference: the NIST ThermoML archive (doi:10.1016/j.jct.2017.03.004)
